Values quoted from earlier work in US20220308074A1, “QUANTIFICATION METHOD OF VITAMIN D DERIVATIVE, ENZYME FOR QUANTIFICATION, COMPOSITION FOR QUANTIFICATION, KIT FOR QUANTIFICATION, ELECTRODE, SENSOR CHIP, AND SENSOR” (KIKKOMAN CORPORATION, priority 2019, published 2022).
Like-named read-outs stand apart in the source and are kept apart here.

Substance | half-life in the blood (in vivo) | half-life in the blood (blood)
25-hydroxyvitamin D | 2-3 weeks | –
1,25-dihydroxyvitamin D | – | about 15 hours
